Results on 19 compounds are retold here after US20260042774A1, “CAMPTOTHECIN-7-ETHYLAMINE DERIVATIVE, PREPARATION METHOD THEREFOR, AND USE THEREOF” (HANGZHOU ADCORIS BIOPHARMA CO., LTD, priority 2022, published 2026).

As usually defined, the IC50 is the point on the concentration scale where inhibition reaches its midpoint.

Common to all, as to format: cell-based
Experiment [1] deals with human gastric cancer cells NCI-N87. The experiment in a line: Tumor cell growth inhibitory activity (CCK-8), NCI-N87. How it is done:
(§1) Human esophageal cancer cells OE33 (human breast adenocarcinoma cells SK-BR-3, or human gastric cancer cells NCI-N87) was cultured in RPMI1640 (Cellmax) supplemented with 10% fetal bovine serum (Cellmax). Cells in the exponential growth phase were diluted to a concentration of 1×10^5 cells/mL by culture medium and added to 96-well cell culture plates at 100 μL per well, then returned back and incubated overnight in a 37° C. incubator with 5% CO2. On the following day, the compounds were diluted to concentrations of 10000 nM, 2000 nM, 400 nM, 80 nM, 16 nM, 3.2 nM, 0.64 nM, and 0.13 nM by culture medium and the diluted compounds were added to the 96-well cell culture plates at 2 μL per well, with three replicate wells for each concentration. Negative control and blank control groups without addition of compounds were added with 2 μL of the dilution liquid per well. After the addition of the compounds, the plates were returned back to the 37° C. incubator with 5% CO2 to continue the incubation for 72 h. After the incubation, the cell culture plates were removed, and the culture medium was aspirated using a pipette. Then, 100 μL of culture medium containing 10% CCK-8 was added to each well, and the plates were incubated at 37° C. for 3 h. After the incubation, the plates were removed, kept in the dark, and placed in an ELISA plate. Absorbance was measured at 630 nm as the reference wavelength and 450 nm as the test wavelength. The IC50 values (Table 2) were calculated using the four-parameter logistic regression method in GraphPad.

Experiment [2] has as its system human breast adenocarcinoma cells SK-BR-3. The experiment in a line: Tumor cell growth inhibitory activity (CCK-8), SK-BR-3. How it is done:
as §1

The subject of experiment [3] is Human esophageal cancer cells OE33. As to the kind of experiment: Tumor cell growth inhibitory activity (CCK-8), OE33. How it is done:
as §1

In a further experiment the test system is NCI-H1975. As to the kind of experiment: Tumor cell growth inhibitory activity, NCI-H1975.
The test system of a further experiment is MDA-MB-231. The experiment in a line: Tumor cell growth inhibitory activity, MDA-MB-231.
The mark [4] stands for this setting: Homo sapiens, NCI-N87, 72 h, read-out: IC50 (nM) for inhibiting the growth of tumor cells, NCI-N87, NCI-N87 cells, 72 h incubation, CCK-8.
Setting [5] is: Homo sapiens, SK-BR-3, 72 h, read-out: IC50 (nM) for inhibiting the growth of tumor cells, SK-BR-3, SK-BR-3 cells, 72 h incubation, CCK-8.
[6] abbreviates: Homo sapiens, OE33, 72 h, read-out: IC50 (nM) for inhibiting the growth of tumor cells, OE33, OE33 cells, 72 h incubation, CCK-8.
Where [7] appears, read: Homo sapiens, NCI-H1975, read-out: IC50 (nM) for inhibiting the growth of tumor cells, NCI-H1975, NCI-H1975 cells.
The mark [8] stands for this setting: Homo sapiens, NCI-N87 cells, 72 h incubation, CCK-8, read-out: IC50 (nM) for inhibiting the growth of tumor cells, NCI-N87.
The mark [9] stands for this setting: Homo sapiens, SK-BR-3 cells, 72 h incubation, CCK-8, read-out: IC50 (nM) for inhibiting the growth of tumor cells, SK-BR-3.
Setting [10] is: Homo sapiens, OE33 cells, 72 h incubation, CCK-8, read-out: IC50 (nM) for inhibiting the growth of tumor cells, OE33.
Setting [11] is: Homo sapiens, NCI-H1975 cells, read-out: IC50 (nM) for inhibiting the growth of tumor cells, NCI-H1975.
Where [12] appears, read: Homo sapiens, MDA-MB-231 cells, read-out: IC50 (nM) for inhibiting the growth of tumor cells, MDA-MB-231.
The mark [13] stands for this setting: read-out: IC50 (nM) for inhibiting the growth of tumor cells, NCI-N87, NCI-N87 cells, 72 h incubation, CCK-8.
[14] abbreviates: read-out: IC50 (nM) for inhibiting the growth of tumor cells, SK-BR-3, SK-BR-3 cells, 72 h incubation, CCK-8.
[15] abbreviates: read-out: IC50 (nM) for inhibiting the growth of tumor cells, OE33, OE33 cells, 72 h incubation, CCK-8.

Structures are written as SMILES. Read-outs that look alike come from different tables or passages of the source.

For `CC[C@@]1(O)C(=O)OCc2c1cc1n(c2=O)Cc2c-1nc1cc3c(cc1c2CCNC1CCC(O)CC1)OCO3` (stereo partly drawn) [Compound 26, 7-(2-(4-Hydroxycyclohexyl)amino)ethyl-10,11-methylenedioxycamptothecin], the IC50 in experiment [1] (setting [4]) was 150 nM; in experiment [2] (setting [5]), 218 nM; in experiment [3] (setting [6]), 129 nM.
As to `CC[C@@]1(O)C(=O)OCc2c1cc1n(c2=O)Cc2c-1nc1cc3c(cc1c2CCNc1ncn[nH]1)OCO3` [Compound 41, 7-(2-(1,2,4-Triazol-5-ylamino))ethyl-10,11-methylenedioxycamptothecin], the IC50 stood at 33.9 nM in experiment [1] (setting [4]), 89.9 nM in experiment [2] (setting [5]), 24.2 nM in experiment [3] (setting [6]) and 136 nM in the experiment on NCI-H1975 (setting [7]).
As for `CC[C@@]1(O)C(=O)OCc2c1cc1n(c2=O)Cc2c-1nc1cc3c(cc1c2CCNC1CCOCC1)OCCO3` [Compound 43, 7-(2-(Tetrahydropyran-4-yl)amino)ethyl-10,11-ethylenedioxycamptothecin], the IC50 in experiment [1] (setting [8]) amounted to 7.43 nM; in experiment [2] (setting [9]), 81.8 nM; in experiment [3] (setting [10]) it was 39.3 nM; with NCI-H1975 (setting [11]), 58.7 nM; in the experiment with MDA-MB-231 (setting [12]), 243 nM.
On the same counts, the results for `CC[C@@]1(O)C(=O)OCc2c1cc1n(c2=O)Cc2c-1nc1cc(F)c(F)cc1c2CCN[C@@H](C)COC` [Compound 11, 7-(2-((S)-2-Methoxyisopropyl)amino)ethyl-10,11-difluorocamptothecin] are 1.67 nM, 19.2 nM, 7.26 nM, 12.6 nM and 157 nM.
Regarding `CC[C@@]1(O)C(=O)OCc2c1cc1n(c2=O)Cc2c-1nc1cc3c(cc1c2CCNCCOC)OCCO3` [Compound 42, 7-(2-(2-Methoxyethyl)amino)ethyl-10,11-ethylenedioxycamptothecin], the IC50 in experiment [1] (setting [8]) stood at 9.96 nM; in experiment [2] (setting [9]), 18 nM; in experiment [3] (setting [10]), 9.95 nM; in the experiment on NCI-H1975 (setting [11]), 26.6 nM; in the experiment with MDA-MB-231 (setting [12]), 94.8 nM.
As to `CC[C@@]1(O)C(=O)OCc2c1cc1n(c2=O)Cc2c-1nc1cc3c(cc1c2CCNCCN=[N+]=[N-])OCO3` [Compound 16, 7-(2-(2-Azidoethyl)amino)ethyl-10,11-methylenedioxycamptothecin], the half-maximal inhibitory concentration (IC50) in experiment [1] (setting [13]) was determined as 1.01 nM; in experiment [2] (setting [14]), 8.96 nM; in experiment [3] (setting [15]), 3.13 nM; with NCI-H1975 (read-out: IC50 (nM) for inhibiting the growth of tumor cells, NCI-H1975, NCI-H1975 cells) it was 9.22 nM; with MDA-MB-231 (read-out: IC50 (nM) for inhibiting the growth of tumor cells, MDA-MB-231, MDA-MB-231 cells), 116 nM.
For the compound `CC[C@@]1(O)C(=O)OCc2c1cc1n(c2=O)Cc2c-1nc1cc(F)c(C)cc1c2CCNC1CCC(O)CC1` (stereo partly drawn) [Compound 6, 7-(2-(4-Hydroxycyclohexyl)amino)ethyl-10-methyl-11-fluorocamptothecin], the IC50 in experiment [1] (setting [8]) was 3.85 nM; in experiment [2] (setting [9]) it was 28.7 nM; in experiment [3] (setting [10]), 24.4 nM; in the experiment with NCI-H1975 (setting [11]), 298 nM.
Regarding `CC[C@@]1(O)C(=O)OCc2c1cc1n(c2=O)Cc2c-1nc1cc3c(cc1c2CCNCCOC)OCO3` [Compound 17, 7-(2-(2-Methoxyethyl)amino)ethyl-10,11-methylenedioxycamptothecin], the IC50 in experiment [1] (setting [13]) turned out to be 0.7 nM; in experiment [2] (setting [14]), 6.53 nM; in experiment [3] (setting [15]) it was 2.49 nM; in the experiment on NCI-H1975 (setting [7]), 9.09 nM; in the experiment with MDA-MB-231 (Homo sapiens, MDA-MB-231, read-out: IC50 (nM) for inhibiting the growth of tumor cells, MDA-MB-231, MDA-MB-231 cells) it was 103 nM.
Turning to `CC[C@@]1(O)C(=O)OCc2c1cc1n(c2=O)Cc2c-1nc1cc3c(cc1c2CCNC1CCC(OC)CC1)OCCO3` (stereo partly drawn) [Compound 44, 7-(2-(4-Methoxycyclohexyl)amino)ethyl-10,11-ethylenedioxycamptothecin], the IC50 in experiment [1] (setting [8]) turned out to be 3.54 nM; in experiment [2] (setting [9]) it was 33.6 nM; in experiment [3] (setting [10]) it was 13.8 nM; in the experiment with NCI-H1975 (setting [11]), 27.1 nM; in the experiment on MDA-MB-231 (setting [12]), 88.5 nM.
Turning to `CC[C@@]1(O)C(=O)OCc2c1cc1n(c2=O)Cc2c-1nc1cc3c(cc1c2CCNC(=O)CN=[N+]=[N-])OCO3` [Compound 37, 7-(2-Azidoacetylamino)ethyl-10,11-methylenedioxycamptothecin], the IC50 in experiment [1] (setting [4]) came out at 5.57 nM; in experiment [2] (setting [5]) it was 41.3 nM; in experiment [3] (setting [6]) it was 25.2 nM; with NCI-H1975 (setting [7]), 229 nM.
On to `CC[C@@]1(O)C(=O)OCc2c1cc1n(c2=O)Cc2c-1nc1cc3c(cc1c2CCN(CCOC)C(=O)CO)OCO3` [Compound 32, 7-(2-(N-Hydroxyacetyl(2-methoxyethyl))amino)ethyl-10,11-methylenedioxycamptothecin], for which the IC50 in experiment [1] (setting [8]) was determined as 2.09 nM; in experiment [2] (setting [9]), 6.48 nM; in experiment [3] (setting [10]) it was 11.6 nM.
Turning to `CC[C@@]1(O)C(=O)OCc2c1cc1n(c2=O)Cc2c-1nc1cc3c(cc1c2CCN[C@@H](C)CO)OCO3` [Compound 28, 7-(2-((S)-Hydroxyisopropyl)amino)ethyl-10,11-methylenedioxycamptothecin], the IC50 in experiment [1] (setting [4]) is 61.5 nM; in experiment [2] (setting [5]), 77.2 nM; in experiment [3] (setting [6]), 49.6 nM; in the experiment with NCI-H1975 (setting [7]), 119 nM.
Consider `CC[C@@]1(O)C(=O)OCc2c1cc1n(c2=O)Cc2c-1nc1cc3c(cc1c2CCN(CC(F)F)C(=O)CO)OCO3` [Compound 33, 7-(2-(N-Hydroxyacetyl(2-difluoroethyl))amino)ethyl-10,11-methylenedioxycamptothecin], for which the figures for the IC50 in experiment [1] (setting [4]), in experiment [2] (setting [5]) and in experiment [3] (setting [6]) were 2.63 nM, 8.93 nM and 11.9 nM, respectively.
For the compound `CC[C@@]1(O)C(=O)OCc2c1cc1n(c2=O)Cc2c-1nc1cc(F)c(F)cc1c2CCNC1CCC(O)CC1` (stereo partly drawn) [Compound 12, 7-(2-(4-Hydroxycyclohexyl)amino)ethyl-10,11-difluorocamptothecin], the IC50 in experiment [1] (setting [8]) came to 5.47 nM; in experiment [2] (setting [9]), 41.7 nM; in experiment [3] (setting [10]) it was 43 nM; with NCI-H1975 (setting [11]), 85.6 nM.
Consider `CC[C@@]1(O)C(=O)OCc2c1cc1n(c2=O)Cc2c-1nc1cc3c(cc1c2CCNS(C)(=O)=O)OCO3` [Compound 38, 7-(2-Methanesulfonamido)ethyl-10,11-methylenedioxycamptothecin], for which the IC50 was found to be 48 nM in experiment [1] (setting [4]), 332 nM in experiment [2] (setting [5]), 199 nM in experiment [3] (setting [6]) and 282 nM with NCI-H1975 (setting [7]).
For `CC[C@@]1(O)C(=O)OCc2c1cc1n(c2=O)Cc2c-1nc1cc(F)c(F)cc1c2CCNCCN=[N+]=[N-]` [Compound 15, 7-(2-(2-Azidoethyl)amino)ethyl-10,11-difluorocamptothecin], the IC50 in experiment [1] (setting [8]) is 1.02 nM; in experiment [2] (setting [9]) it was 7.5 nM; in experiment [3] (setting [10]), 32.3 nM; in the experiment on NCI-H1975 (setting [11]), 115 nM.
Consider `CC[C@@]1(O)C(=O)OCc2c1cc1n(c2=O)Cc2c-1nc1cc(F)c(C)cc1c2CCN1CCNCC1` [Compound 5, 7-(2-(piperazin-4-yl))ethyl-10-methyl-11-fluorocamptothecin], for which the IC50 in experiment [1] (setting [8]) was determined as 5.66 nM; in experiment [2] (setting [9]), 60.4 nM; in experiment [3] (setting [10]), 44 nM; in the experiment on NCI-H1975 (setting [11]), 77.3 nM.
Taken in the same sequence, the figures for `CC[C@@]1(O)C(=O)OCc2c1cc1n(c2=O)Cc2c-1nc1cc(F)c(C)cc1c2CCNC(=O)C(F)F` [Compound 2, 7-(2-Difluoroacetylamino)ethyl-10-methyl-11-fluorocamptothecin] were 1.9 nM, 16.6 nM, 9.02 nM and 101 nM.
For `CC[C@@]1(O)C(=O)OCc2c1cc1n(c2=O)Cc2c-1nc1cc(F)c(F)cc1c2CCNCCO` [Compound 10, 7-(2-Hydroxyethylamino)ethyl-10,11-difluorocamptothecin], the IC50 in experiment [1] (setting [8]) was 8.17 nM; in experiment [2] (setting [9]), 76.5 nM; in experiment [3] (setting [10]), 58.3 nM.
